Consider 32 compounds from ChEMBL document CHEMBL1136597, “A structure-permeability study of small drug-like molecules” (Bioorg Med Chem Lett, 2003).

SMILES strings stand for the structures.

Data set [1] is described as follows: Permeability directional ratio (PB-A/PA-B) in Caco-2 cell. As to conditions: human, read-out: PDR. The data set is classed as ADME, cell-based.
The nature of data set [2]: Distribution coefficient of octanol and phosphate buffered saline at pH 7.4. The data set is classed as physicochemical. As to conditions: read-out: Log Doct/PBS.
Data set [3] is described as follows: Partition coefficient (logD7.4) measured using octanol and PBS at pH7.4. The data set is classed as physicochemical. Conditions: pH 7.4, read-out: LogD7.4.

As for `N=C(N)c1cccc(Cc2ncccn2)c1`, the efflux ratio in data set [1] worked out at 3. In data set [2], the logD is -1.03.

For `NC(=O)c1cccc(Cn2cccn2)c1`, the logD in data set [3] worked out at 0.71.

Turning to `CS(=O)(=O)Nc1cccc(Cn2cnc3ccccc32)c1`, in data set [2], the logD was determined as 2.08.

As to `O=C(O)c1cccc(Cn2cnc3ccccc32)c1`, the efflux ratio in data set [1] was determined as 3. For the same compound, in data set [2], the logD was -0.72.

With `Nc1cccc(Cn2cnc3ccccc32)c1`, in data set [2], the logD amounted to 1.92.

As to `N#Cc1cccc(Cn2cnc3ccccc32)c1`, the logD in data set [3] amounted to 2.47.

On to `c1cc(Cn2cnc3ccccc32)cc(-c2nn[nH]n2)c1`, for which the efflux ratio in data set [1] came out at 145. Moreover, the logD in data set [3] is 0.27.

On to `N#Cc1cccc(Cn2ccnc2)c1`, for which the logD in data set [3] worked out at 1.01.

As to `c1ccc(-c2nn[nH]n2)c(Cn2cnc3ccccc32)c1`, the efflux ratio in data set [1] was 180.

On to `O=C(O)c1ccc(Cn2ccnc2)cc1`, for which the efflux ratio in data set [1] is 1. Moreover, the logD in data set [2] was -2.1.

In the case of `NCc1cccc(Cn2cnc3ccccc32)c1`, the logD in data set [3] was determined as 0.21.

As to `NCc1cccc(Cn2cccn2)c1`, the logD in data set [3] is -0.77.

As for `O=C(O)Cc1ccc(Cn2cccn2)cc1`, the logD in data set [3] is -1.8.

`c1ccc(Cn2cnc3ccccc32)cc1`: the logD in data set [3] worked out at 2.91.

With `O=C(O)c1ccc(Cn2cccn2)cc1`, in data set [3], the logD was -1.65.

In the case of `NS(=O)(=O)c1ccc(Cn2cnc3ccccc32)cc1`, in data set [3], the logD came out at 1.04.

In the case of `O=S(=O)(O)c1ccc(Cn2cnc3ccccc32)cc1`, in data set [1], the efflux ratio was 7. Moreover, in data set [2], the logD was found to be 1.78.

With `NC(=O)c1cccc(Cc2ncccn2)c1`, the logD in data set [3] stood at 0.28.

Regarding `c1ccc2c(c1)ncn2Cc1ccc(-c2nn[nH]n2)cc1`, in data set [1], the efflux ratio worked out at 129.

On to `c1cnc(Cc2cccc(-c3nn[nH]n3)c2)nc1`, for which, in data set [1], the efflux ratio is 20. Besides, in data set [3], the logD was -1.28.

`O=C(O)Cc1ccc(Cn2cnc3ccccc32)cc1`: in data set [3], the logD is -1.13.

Turning to `NCc1cccc(Cc2ncccn2)c1`, the logD in data set [3] was -1.11.

In the case of `NC(=O)c1cccc(Cn2cnc3ccccc32)c1`, the logD in data set [3] is 1.7.

On to `O=C(O)c1ccc(Cn2cnc3ccccc32)cc1`, for which, in data set [3], the logD was -0.61.

In the case of `NC(=O)c1cccc(Cn2ccnc2)c1`, in data set [3], the logD was -0.01.

On to `N#Cc1cccc(Cc2ncccn2)c1`, for which the logD in data set [3] was determined as 1.46.

As for `N#Cc1cccc(Cn2cccn2)c1`, in data set [3], the logD amounted to 1.74.

Consider `O=C(O)Cc1ccc(Cn2ccnc2)cc1`, for which, in data set [3], the logD is -2.37.

With `O=C(O)c1cccc(Cn2cccn2)c1`, the logD in data set [3] was -1.62.

For the compound `O=C(O)c1ccc(Cc2ncccn2)cc1`, in data set [3], the logD is -2.2.

Take `c1ccc(Cn2ccnc2)cc1` [BENZYLIMIDAZOLE]: the logD in data set [3] is 1.78.

Turning to `O=C(O)c1cccc(Cc2ncccn2)c1`, the logD in data set [3] was -1.98.
